{"source": "patent US20090263852A1", "about": "“NONAPOPTOTIC FORMS OF CELL DEATH AND METHODS OF MODULATION” (priority 2000, published 2009)", "key": {"[1]": {"system": "IGFIR-IC transfected 293T cells", "assay": "IGFIR-IC-induced cell death (paraptosis) in transfected 293T cells, trypan blue exclusion", "type": "cell-based", "parameters": "inhibition of IGFIR-IC-induced cell death: dose or concentration left out as unconfirmed", "details": "for IGFIR-induced cell death following drug treatment: drug added 8.5 hrs after transfection, removed after 12 hrs, floating dead cells counted 24 hrs later with trypan blue", "method": "Transient transfections used Lipofect-Amine (GIBCO, BRL, Rockville, Md.) according to the manufacturer's instructions. Briefly, 1×10^6 293T cells were seeded in 6 cm dishes, and transfected the next day using a ratio of DNA:Lipofect-Amine of 1 μg:5 μl.\nFollowing expression of the IGIFR-IC constructs, the cell cultures were assayed for cell death. Cell death was assessed by trypan blue exclusion. Floating cells were collected at the indicated times after transfection, by centrifugation for 10 minutes at 1500 rpm. The cell pellet was subsequently resuspended in 50 μl of PBS, to which 50 μl of trypan blue was added. Dead cells were counted by 4 independent hemocytometer counts.\nBriefly, caspase inhibitor BAF was added to pIGFIR-IC transfected 293T cells at a concentration of […]. In addition, 293T cells were cotransfected with […] of pIGFIR-IC and […] of either pcDNA3 or pxiap or pBcl-xL. […] BAF and zVAD.fmk were obtained from Enzyme System Products (Livermore, Calif.).\nTo assess IGFIR-induced cell death following treatment with Actinomycin D and cycloheximide, both drugs were obtained form Sigma and added to IGFIR-IC transfected 293T cells. Briefly, 293T cells were transfected as described above and 8.5 hours after the beginning of transfection the drugs were added at the indicated concentrations. The drugs were subsequently removed after 12 hours and the cells were fed with fresh medium. Floating cells were collected 24 hrs after the removal of the drugs and dead cells were counted in the presence of trypan blue.\nTo assess whether caspase-9 has a functional role in IGFIR-induced cell death 293T cells were transfected with 2 μg of DNA consisting of either pcDNA3, 0.5 μg pIGFIR-IC+1.5 μg pcDNA3 (Invitrogen, Carlsbad, Calif.), or 0.5 μg pIGFIR-IC+1.5 μg dominant negative caspase-9 (pC9DN) or dominant negative caspase-7 (pC7DN) expression constructs. 48 hours after transfection, dead cells were counted."}, "Apoptosis": {"system": "Apoptosis", "details": "Table 1, Comparison of Apoptosis, Necrosis and Paraptosis; cited from earlier work"}, "[2]": {"system": "293T cells transfected with caspase-7 zymogen expression construct", "assay": "caspase-7 induced cell death in transfected 293T cells", "type": "cell-based", "details": "50 μM final concentration, 48 hours after transfection", "method": "(§1) In panel (A) 293T cells were transfected with the indicated pcDNA3-based caspase zymogen expression constructs. The general caspase inhibitor BAF was added at 50 μM final concentration. Cell death was assayed 48 hours after transfection. […] Asterisks indicate a highly significant difference from the control as determined by one-way ANOVA analysis (F=34.624, P<0.0001), P<0.0001 for pC9, P=0.0002 for pC7, and P=0.0001 for pC9+BAF (Bonferroni/Dunn post-hoc test). Error bars represent the SEM from three independent experiments. […] Cells were photographed 24 hours after transfection. […] BAF. […] Cells were stained as described in FIG. 2C. Panel (E) Electron micrograph of 293T cells transfected with an expression construct for pro-caspase-9 in the presence of. zVAD.fmk (40 μM). Morphology similar to IGFIR-IC-induced cell death was observed, including cytoplasmic vacuolation and the absence of chromatin condensation, nuclear fragmentation, and apoptotic body formation. Original magnification: 6000×.\n(§2) Following expression of the IGIFR-IC constructs, the cell cultures were assayed for cell death. Cell death was assessed by trypan blue exclusion. Floating cells were collected at the indicated times after transfection, by centrifugation for 10 minutes at 1500 rpm. […] Dead cells were counted by 4 independent hemocytometer counts. […]"}, "[3]": {"system": "293T cells transfected with pro-caspase expression constructs", "assay": "Internucleosomal DNA fragmentation of 293T cells transfected with pro-caspase expression constructs", "type": "cell-based", "details": "50 μM BAF", "method": "as §1\nSince one of the defining features of apoptotic cell death is the fragmentation of chromatin, genome integrity was assayed by agarose gel electrophoresis. Oligonucleosomal DNA fragmentation was assessed by extraction of soluble DNA from 3×10^6 transfected cells as by Frisch and Francis, Journal of Cell Biology 124:619-626 (1994), which is incorporated herein by reference."}, "[4]": {"system": "293T cells transfected with pro-caspase-9 (pC9)", "assay": "caspase-9 induced cell death in transfected 293T cells", "type": "cell-based", "method": "as §1, §2"}}, "note": "Starred links: 1 amine or outer side, 2 acyl side, 3 side chain; linkers in the order of their positions; H or OH if unused. Positions of bridges follow the written chain, without caps; N, C: chain ends. Non-standard residues stand in square brackets, D forms with d. Residues, ends and D or L forms follow the SMILES beside them. Chains are numbered I, II in the order given. Actinocin(9to1) = Cc1c2oc3c(C)ccc(C(=O)[*:1])c3nc-2c(C(=O)[*:2])c(N)c1=O; NMeV = CN[C@H](C(=O)O)C(C)C; Sar = CNCC(=O)O"}
{"smiles": "C[C@@H]1C[C@@H]([C@H](O)CC2CC(=O)NC(=O)C2)C(=O)[C@@H](C)C1", "note": "[Cycloheximide, cycloheximide]", "values": [{"measurement": "Inhibition by: Paraptosis", "setting": "[1]; Table 1, 293T cell death induced by IGFIR-IC", "result": 0}, {"measurement": "IGFIR-induced cell death following drug treatment", "setting": "[1]", "result": "dose-dependent block"}, {"measurement": "Inhibition by: Apoptosis", "setting": "Apoptosis", "result": "Sometimes"}]}
{"smiles": "Cc1c2oc3c(C)ccc(C(=O)N[C@@H]4C(=O)N[C@H](C(C)C)C(=O)N5CCC[C@H]5C(=O)N(C)CC(=O)N(C)[C@@H](C(C)C)C(=O)O[C@@H]4C)c3nc-2c(C(=O)N[C@@H]2C(=O)N[C@H](C(C)C)C(=O)N3CCC[C@H]3C(=O)N(C)CC(=O)N(C)[C@@H](C(C)C)C(=O)O[C@@H]2C)c(N)c1=O", "note": "[Actinomycin D] (I: T[dV]P[Sar][NMeV] / II: T[dV]P[Sar][NMeV]; ester I:1-I:C, II:1-II:C; linker I:N-II:N via Actinocin(9to1))", "values": [{"measurement": "IGFIR-induced cell death following drug treatment", "setting": "[1]", "result": "restored cell viability to control levels"}, {"measurement": "Inhibition by: Apoptosis", "setting": "Apoptosis", "result": "Sometimes"}]}
{"smiles": "CC[C@H]1/C=C/C=C/C[C@@H](C)[C@H](O)[C@@](C)(O)C(=O)[C@@H](C)[C@H](O)[C@@H](C)C(=O)[C@@H](C)[C@H](O)[C@@H](C)/C=C/C(=O)O[C@@H]2[C@H](C)[C@H](CC1)O[C@]1(CC[C@H](C)[C@H](C[C@@H](C)O)O1)[C@H]2C", "note": "[oligomycin]", "values": [{"measurement": "block of IGFIR-induced cell death phenotype", "setting": "[1]; 100 ng/ml", "result": "blocked the phenotype"}]}
{"smiles": "COC(=O)C[C@H](NC(=O)OC(C)(C)C)C(=O)CF", "note": "[BAF, t-butyloxycarbonyl-Asp (O-methyl)-fluoromethyl ketone]", "values": [{"measurement": "inhibition of caspase-7 induced cell death", "setting": "[2]", "result": "completely"}, {"measurement": "inhibition of IGFIR-IC-induced cell death", "setting": "[1]; 293T cells", "result": "Neither the administration of the caspase inhibitor BAF at 50 mM (A) nor the cotransfection of xiap (B) or Bcl-xL (C) were effective"}, {"measurement": "Internucleosomal DNA fragmentation", "setting": "[3]", "result": "completely inhibited"}, {"measurement": "morphology of pro-caspase-9 transfected cells, light microscopy", "setting": "[4]; 50 μM BAF, 24 hours after transfection", "result": "suppressed the apoptotic phenotype"}, {"measurement": "inhibition of caspase-9 induced cell death", "setting": "[4]; 50 μM final concentration, 48 hours after transfection", "result": 30, "unit": "%"}]}
